Laboratory results taken from patent publication US8937194B2, “Topical compositions containing nitro fatty acids” (Nitromega Corp., priority 2008, dated 2015).

Assay: Stability of 10-nitro oleic acid (OA-NO2) in olive oil, quantified by LC-MS/MS
Assay type: physicochemical
Experimental: Stability experiments were conducted using Bertolli extra light olive oil. Methanol soluble impurities were extracted twice. […] Olive oil is highly hydrophobic and liposomes have been previously shown to stabilize nitrated linoleic acid. The composition of Olive oil used was as follows: total fat: 14 g, saturated fat: 9%, polyunsaturated fat: 9%, Monounsaturated Fat: 45%
First, methanol-soluble substances were extracted from olive oil by applying 6 volumes of methanol per volume of oil and vortexing for a minute. The triglyceride containing fraction was obtained and the extraction was repeated. The remaining triglycerides were dried under vacuum to eliminate remaining organic solvents. […]
At the different time points, aliquot by triplicate were obtained, fatty acids were extracted from the triglyceride matrix using a 4:1 ratio of methanol:triglyceride, diluted to a final concentration of 100 nM and quantified using liquid chromatography coupled to mass spectrometry. […] The nitrated oleic acid was detected using the multiple reaction monitoring (MRM) process in the negative ion mode performed on a 4000 QTRAP triple quadrupole (Applied Biosystems). […] The peak areas were integrated using Analyst 1.5.1 software (Applied Biosystems) and external standard curves were performed for quantification purposes.

For `CCCCCCCC/C(=C\CCCCCCCC(=O)O)[N+](=O)[O-]` [10-nitro oleic acid], the “stability in olive oil (percentage of the starting concentration)” value (750 μM in extracted Bertolli extra light olive oil, stored in the dark at 22° C., 37° C. and 50° C., periods of up to 20 days (FIG. 1: 19 days)) was “stable” and the “decrease in stability after 135 days” value (750 μM in olive oil, samples incubated at 22° C., 37° C., after 135 days) was “about 15%”.
